pEC50: −log10 of the molar value.
Columns and labels:
Test in all cases: Fluo-4AM calcium fluorescence, plate reader
AsegOR7 + MdesOrco [1] = system: T1, AsegOR7 + MdesOrco; assay type: cell-based, Agrotis segetum; conditions: agonist of OR; heterospecific Orco co-expressed
T1 construct: gene OR7; heterospecific complex: A. segetum OR7 (V5 tag) with Mayetiola destructor Orco (c-myc tag), TREx/HEK293; with Odorant receptor coreceptor (Mayetiola destructor)

AsegOR7 + MdesOrco [2] = system: T1, AsegOR7 + MdesOrco; assay type: cell-based, Agrotis segetum; conditions: agonist of OR; heterospecific mutant Orco co-expressed
From the text: Fluo-4AM calcium fluorescence, plate reader on AsegOR7 + MdesOrco | when co-expressed with either version of MdesOrco

AsegOR7 + AsegOrco [3] = system: T2, AsegOR7 + AsegOrco; assay type: cell-based, Agrotis segetum; conditions: agonist of OR; OR and Orco co-expressed
T2 construct: gene OR7; stoichiometry unknown; with Odorant receptor coreceptor
From the text: Fluo-4AM calcium fluorescence, plate reader on AsegOR7 + AsegOrco | when AsegOR7 was co-expressed with WT AsegOrco the cells responded dose dependently

AsegOR7 + AsegOrco [4] = system: T2, AsegOR7 + AsegOrco; assay type: cell-based, Agrotis segetum; conditions: agonist of OR; OR and mutant Orco co-expressed
AsegOR7 + DmelOrco = system: T3, AsegOR7 + DmelOrco; assay type: cell-based, Agrotis segetum; conditions: agonist of OR; heterospecific Orco co-expressed
T3 construct: gene OR7; heterospecific complex: A. segetum OR7 (V5 tag) with Drosophila melanogaster Orco (c-myc tag), TREx/HEK293; with Odorant receptor coreceptor (Drosophila melanogaster)
From the text: Fluo-4AM calcium fluorescence, plate reader on AsegOR7 + DmelOrco | they responded well to their respective OR-specific ligand

MdesOR115 + MdesOrco [5] = system: T4, MdesOR115 + MdesOrco; assay type: cell-based, Mayetiola destructor; conditions: agonist of OR; OR and Orco co-expressed
T4 construct: gene OR115; stoichiometry unknown; with Odorant receptor coreceptor

MdesOR115 + MdesOrco [6] = system: T4, MdesOR115 + MdesOrco; assay type: cell-based, Mayetiola destructor; conditions: agonist of OR; OR and mutant Orco co-expressed
From the text: Fluo-4AM calcium fluorescence, plate reader on MdesOR115 + MdesOrco | when co-expressed with either WT MdesOrco or MdesOrco^(H81F, N133L, A350S)

MdesOR115 + DmelOrco = system: T5, MdesOR115 + DmelOrco; assay type: cell-based, Mayetiola destructor; conditions: agonist of OR; heterospecific Orco co-expressed
T5 construct: gene OR115; heterospecific complex: M. destructor OR115 (V5 tag) with Drosophila melanogaster Orco (c-myc tag), TREx/HEK293; with Odorant receptor coreceptor (Drosophila melanogaster)

MdesOR115 + AsegOrco = system: T6, MdesOR115 + AsegOrco; assay type: cell-based, Mayetiola destructor; conditions: agonist of OR; heterospecific Orco co-expressed
T6 construct: gene OR115; heterospecific complex: M. destructor OR115 (V5 tag) with Agrotis segetum Orco (c-myc tag), TREx/HEK293; with Odorant receptor coreceptor (Agrotis segetum)

MdesOrco [7] = target: T7, MdesOrco (Mayetiola destructor, UniProt A0A1D8GZG0, A350S/C230Q/C408S/H81F/I150T/N133L/T205L); assay type: cell-based
T7 construct: homomeric channel
T7 sequence (A0A1D8GZG0 1-466 H81F/N133L/I150T/T205L/C230Q/A350S/C408S): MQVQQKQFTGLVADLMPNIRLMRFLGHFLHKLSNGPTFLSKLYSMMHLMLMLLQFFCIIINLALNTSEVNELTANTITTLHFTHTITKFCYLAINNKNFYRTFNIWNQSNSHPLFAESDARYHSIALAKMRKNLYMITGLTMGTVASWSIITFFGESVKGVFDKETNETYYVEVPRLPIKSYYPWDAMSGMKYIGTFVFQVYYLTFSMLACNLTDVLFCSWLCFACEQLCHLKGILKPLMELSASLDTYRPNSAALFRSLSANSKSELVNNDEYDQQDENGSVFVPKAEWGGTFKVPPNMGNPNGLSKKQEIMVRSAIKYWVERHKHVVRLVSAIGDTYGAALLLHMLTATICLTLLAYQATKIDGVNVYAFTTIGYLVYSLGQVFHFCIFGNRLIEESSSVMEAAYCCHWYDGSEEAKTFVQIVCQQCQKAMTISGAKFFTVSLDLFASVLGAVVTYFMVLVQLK
From the text: Fluo-4AM calcium fluorescence, plate reader on MdesOrco | contained the seven point mutations responded well to VUAA1

MdesOrco [8] = target: T8, MdesOrco (Mayetiola destructor, UniProt A0A1D8GZG0, A350S/H81F/N133L); assay type: cell-based
T8 construct: homomeric channel
T8 sequence (A0A1D8GZG0 1-466 H81F/N133L/A350S): T7 sequence (A0A1D8GZG0 1-466 H81F/N133L/I150T/T205L/C230Q/A350S/C408S)
From the text: Fluo-4AM calcium fluorescence, plate reader on MdesOrco | MdesOrco^(H81F, N133L, A350S) responded similarly to VUAA1 in HEK293 cells

DmelOrco = target: T9, DmelOrco (Drosophila melanogaster, UniProt Q9VNB5); assay type: cell-based
T9 construct: gene Orco; homomeric channel
T9 sequence (Q9VNB5 1-486): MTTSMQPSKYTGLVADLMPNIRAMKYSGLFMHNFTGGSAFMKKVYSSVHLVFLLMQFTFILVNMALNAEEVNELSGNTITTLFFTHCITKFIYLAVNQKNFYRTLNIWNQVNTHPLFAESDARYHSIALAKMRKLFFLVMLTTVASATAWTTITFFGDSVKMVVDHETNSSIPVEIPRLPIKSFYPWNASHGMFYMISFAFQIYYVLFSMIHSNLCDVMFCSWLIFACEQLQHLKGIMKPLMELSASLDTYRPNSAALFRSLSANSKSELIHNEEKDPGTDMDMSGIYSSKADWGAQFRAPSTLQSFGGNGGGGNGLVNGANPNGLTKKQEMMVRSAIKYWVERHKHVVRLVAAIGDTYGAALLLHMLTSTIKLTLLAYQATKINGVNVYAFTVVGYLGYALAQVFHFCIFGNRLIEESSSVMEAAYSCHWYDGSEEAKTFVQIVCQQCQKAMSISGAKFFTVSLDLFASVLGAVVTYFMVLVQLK
From the text: Fluo-4AM calcium fluorescence, plate reader on DmelOrco | WT AsegOrco and DmelOrco responded dose-dependently to VUAA1

AsegOrco = target: T10, AsegOrco (Agrotis segetum, UniProt U5KJY5); assay type: cell-based
T10 construct: homomeric channel
T10 sequence (U5KJY5 2-473 limits assumed): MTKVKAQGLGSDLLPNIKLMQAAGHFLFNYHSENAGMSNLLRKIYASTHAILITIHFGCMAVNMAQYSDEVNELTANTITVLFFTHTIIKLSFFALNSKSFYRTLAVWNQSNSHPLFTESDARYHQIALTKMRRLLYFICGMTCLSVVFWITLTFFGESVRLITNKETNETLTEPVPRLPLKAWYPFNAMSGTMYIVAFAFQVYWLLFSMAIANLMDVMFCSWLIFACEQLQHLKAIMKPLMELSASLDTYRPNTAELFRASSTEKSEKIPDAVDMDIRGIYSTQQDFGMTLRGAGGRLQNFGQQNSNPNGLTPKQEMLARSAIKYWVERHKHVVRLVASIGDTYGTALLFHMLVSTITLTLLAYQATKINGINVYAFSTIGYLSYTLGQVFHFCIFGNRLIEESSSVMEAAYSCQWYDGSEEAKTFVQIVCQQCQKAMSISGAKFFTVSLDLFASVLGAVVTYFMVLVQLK
From the text: Fluo-4AM calcium fluorescence, plate reader on AsegOrco | WT AsegOrco and DmelOrco responded dose-dependently to VUAA1

DmelOR56a + DmelOrco = target: T11, DmelOR56a + DmelOrco (Drosophila melanogaster, UniProt Q9V8Y7); assay type: cell-based; conditions: agonist of OR; OR and Orco co-expressed
T11 construct: gene Or56a; stoichiometry unknown; with Odorant receptor coreceptor
T11 sequence (Q9V8Y7 1-419): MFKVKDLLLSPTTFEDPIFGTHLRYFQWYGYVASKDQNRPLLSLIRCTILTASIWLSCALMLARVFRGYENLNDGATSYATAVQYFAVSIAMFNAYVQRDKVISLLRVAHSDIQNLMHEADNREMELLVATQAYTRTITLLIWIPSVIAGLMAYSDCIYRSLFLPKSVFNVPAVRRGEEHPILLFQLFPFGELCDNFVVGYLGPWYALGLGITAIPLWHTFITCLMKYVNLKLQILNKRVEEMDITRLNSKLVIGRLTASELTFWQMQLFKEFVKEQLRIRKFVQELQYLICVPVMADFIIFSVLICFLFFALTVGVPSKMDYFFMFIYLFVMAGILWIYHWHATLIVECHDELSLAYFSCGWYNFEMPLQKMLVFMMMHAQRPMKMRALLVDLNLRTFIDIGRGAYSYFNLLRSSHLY
T11 sequence (Q9VNB5 1-486 partner): T9 sequence (Q9VNB5 1-486)
From the text: Fluo-4AM calcium fluorescence, plate reader on DmelOR56a + DmelOrco | when DmelOR56a was co-expressed with WT DmelOrco the cells responded dose-dependently to geosmin

DmelOR56a + MdesOrco = target: T12, DmelOR56a + MdesOrco (Drosophila melanogaster, UniProt Q9V8Y7); assay type: cell-based; conditions: agonist of OR; heterospecific Orco co-expressed
T12 construct: gene Or56a; heterospecific complex: D. melanogaster OR56a (V5 tag) with Mayetiola destructor Orco (c-myc tag), TREx/HEK293; with Odorant receptor coreceptor (Mayetiola destructor)
T12 sequence (Q9V8Y7 1-419): T11 sequence (Q9V8Y7 1-419)
T12 sequence (A0A1D8GZG0 1-466 partner): T7 sequence (A0A1D8GZG0 1-466 H81F/N133L/I150T/T205L/C230Q/A350S/C408S)

DmelOR56a + AsegOrco = target: T13, DmelOR56a + AsegOrco (Drosophila melanogaster, UniProt Q9V8Y7); assay type: cell-based; conditions: agonist of OR; heterospecific Orco co-expressed
T13 construct: gene Or56a; heterospecific complex: D. melanogaster OR56a (V5 tag) with Agrotis segetum Orco (c-myc tag), TREx/HEK293; with Odorant receptor coreceptor (Agrotis segetum)
T13 sequence (Q9V8Y7 1-419): T11 sequence (Q9V8Y7 1-419)
T13 sequence (U5KJY5 2-473 partner limits assumed): T10 sequence (U5KJY5 2-473 limits assumed)
From the text: Fluo-4AM calcium fluorescence, plate reader on DmelOR56a + AsegOrco | they responded well to their respective OR-specific ligand

## CCCC/C=C\CCCCOC(C)=O [(Z)-5-decenyl acetate]
AsegOR7 + MdesOrco [1]
  pEC50: 5.60
AsegOR7 + MdesOrco [2]
  pEC50: 5.55
AsegOR7 + AsegOrco [3]
  pEC50: 5.64
AsegOR7 + AsegOrco [4]
  pEC50: 5.66
AsegOR7 + DmelOrco
  pEC50: 5.92

## CC/C=C/C=C/CCCCC[C@H](C)OC(C)=O [(2S,8E,10E)-8,10-tridecadien-2-yl acetate]
MdesOR115 + MdesOrco [5]
  pEC50: 5.59
MdesOR115 + MdesOrco [6]
  pEC50: 5.51
MdesOR115 + DmelOrco
  pEC50: 5.21
MdesOR115 + AsegOrco
  pEC50: 5.46

## CCc1ccc(NC(=O)CSc2nnc(-c3cccnc3)n2CC)cc1 [VUAA1, N-(4-ethylphenyl)-2-((4-ethyl-5-(3-pyridinyl)-4H-1,2,4-triazol-3-yl)thio)acetamide]
MdesOrco [7]
  pEC50: 4.58
MdesOrco [8]
  pEC50: 4.60
DmelOrco
  pEC50: 4.82
AsegOrco
  pEC50: 4.56

## C[C@H]1CCC[C@@]2(C)CCCC[C@]12O [geosmin]
DmelOR56a + DmelOrco
  pEC50: 7.72
DmelOR56a + MdesOrco
  pEC50: 7.03
DmelOR56a + AsegOrco
  pEC50: 7.43
